Reference: patent publication US4008220A, “Penicillins” (Sumitomo Chemical Company, Limited, priority 1972, dated 1977)
≈ marks a conversion by molar mass, not a printed value.

Columns and labels:
Test in all cases: Minimal inhibitory concentration by agar dilution method
Assay type in all cases: cell-based
Escherichia coli NIHJ = system: Escherichia coli NIHJ
[1] = system: Pseudomonas aeruginosa 104
Proteus mirabilis GN2425 = system: Proteus mirabilis GN2425
[2] = system: Klebsiella pneumoniae 602
Proteus vulgaris HX19 = system: Proteus vulgaris HX19
[3] = system: Staphylococcus aureus 209P

Row | SMILES | MIC (Escherichia coli NIHJ) [mg/L] | MIC [1] [mg/L] | MIC (Proteus mirabilis GN2425) [mg/L] | MIC [2] [mg/L] | MIC (Proteus vulgaris HX19) [mg/L] | MIC [3] [mg/L]
1 | CCOC(=O)Oc1c(C(=O)N[C@@H](C(=O)N[C@@H]2C(=O)N3[C@@H]2SC(C)(C)[C@@H]3C(=O)O)c2ccccc2)cnc2c1CCC2 [Example 1, D-α-(4-ethoxycarbonyloxy-2,3-cyclopentenopyridine-5-carboxamido)-benzylpenicillin] | 12.5 (≈ 21.5 µM) | 6.25 (≈ 10.7 µM) | 3.13 (≈ 5.37 µM) | 6.25 (≈ 10.7 µM) | 0.05 (≈ 0.0858 µM) | 0.39 (≈ 0.669 µM)
2 | CC1(C)S[C@@H]2[C@H](NC(=O)[C@H](NC(=O)c3cnc4c(c3O)CCC4)c3ccccc3)C(=O)N2[C@H]1C(=O)O [Example 2, D-α-(4-hydroxy-2,3-cyclopentenopyridine-5-carboxamido)-benzylpenicillin] | 25 (≈ 49 µM) | 12.5 (≈ 24.5 µM) | 12.5 (≈ 24.5 µM) | 12.5 (≈ 24.5 µM) | 0.39 (≈ 0.764 µM) | 0.39 (≈ 0.764 µM)
3 | CC1(C)S[C@@H]2[C@H](NC(=O)[C@H](NC(=O)c3cnc4c(c3O)CCCC4)c3ccccc3)C(=O)N2[C@H]1C(=O)O [Example 3, D-α-(4-hydroxy-2,3-cyclohexenopyridine-5-carboxamido)-benzylpenicillin] |  | 12.5 (≈ 23.8 µM) | 6.25 (≈ 11.9 µM) |  | 0.39 (≈ 0.743 µM) | 
4 | CC(=O)c1c(C)ncc(C(=O)N[C@@H](C(=O)N[C@@H]2C(=O)N3[C@@H]2SC(C)(C)[C@@H]3C(=O)O)c2ccccc2)c1O [Example 4, D-α-(3-acetyl-4-hydroxy-2-methyl-pyridine-5-carboxamido)-benzylpenicillin] | 12.5 (≈ 23.7 µM) | 12.5 (≈ 23.7 µM) | 6.25 (≈ 11.9 µM) | 12.5 (≈ 23.7 µM) | 0.39 (≈ 0.741 µM) | 0.78 (≈ 1.48 µM)
5 | CC(C)(C)C(=O)Oc1c(C(=O)N[C@@H](C(=O)N[C@@H]2C(=O)N3[C@@H]2SC(C)(C)[C@@H]3C(=O)O)c2ccccc2)cnc2c1CCCC2 [Example 5, D-α-(2,3-cyclohexeno-4-pivaloyloxypyridine-5-carboxamido)-benzylpenicillin] | 12.5 (≈ 20.5 µM) | 12.5 (≈ 20.5 µM) | 6.25 (≈ 10.3 µM) | 6.25 (≈ 10.3 µM) | 0.39 (≈ 0.641 µM) | 0.78 (≈ 1.28 µM)
6 | CCOC(=O)Oc1c(C(=O)N[C@@H](C(=O)N[C@@H]2C(=O)N3[C@@H]2SC(C)(C)[C@@H]3C(=O)O)c2ccccc2)cnc2c1CCCC2 [Example 6, D-α -(4-ethoxycarbonyloxy-2,3-cyclohexenopyridine-5-carboxamido)-benzylpenicillin] | 12.5 (≈ 20.9 µM) | 12.5 (≈ 20.9 µM) | 6.25 (≈ 10.5 µM) | 6.25 (≈ 10.5 µM) | 0.39 (≈ 0.654 µM) | 0.78 (≈ 1.31 µM)
7 | CC1(C)S[C@@H]2[C@H](NC(=O)[C@H](NC(=O)c3ccnnc3O)c3ccccc3)C(=O)N2[C@H]1C(=O)O [Example 8, D-α-(3-hydroxypyridazine-4-carboxamido)-benzylpenicillin] |  |  | 6.25 (≈ 13.3 µM) |  |  | 
8 | CC1(C)S[C@@H]2[C@H](NC(=O)[C@H](NC(=O)c3cnccc3O)c3ccc(O)cc3)C(=O)N2[C@H]1C(=O)O [Example 9, D-α-(4-hydroxypyridine-3-carboxamido)-p-hydroxybenzylpenicillin] |  |  | 6.25 (≈ 12.8 µM) | 100 (≈ 206 µM) |  | 0.78 (≈ 1.6 µM)
9 | CC1(C)S[C@@H]2[C@H](NC(=O)[C@H](NC(=O)c3cccnc3O)c3ccc(O)cc3)C(=O)N2[C@H]1C(=O)O [Example 10, D-α-(2-hydroxypyridine-3-carboxamido)-p-hydroxybenzylpenicillin] | 12.5 (≈ 25.7 µM) | 6.25 (≈ 12.8 µM) | 12.5 (≈ 25.7 µM) | 100 (≈ 206 µM) | 0.2 (≈ 0.411 µM) | 1.56 (≈ 3.21 µM)
10 | CC1(C)S[C@@H]2[C@H](NC(=O)[C@H](NC(=O)c3cnccc3O)C3=CCC=CC3)C(=O)N2[C@H]1C(=O)O [Example 11, D-α-(4-hydroxypyridine-3-carboxamido)-1,4-cyclohexadienylmethylpenicillin] | 25 (≈ 52.9 µM) | 6.25 (≈ 13.2 µM) | 12.5 (≈ 26.5 µM) | 12.5 (≈ 26.5 µM) | 0.2 (≈ 0.423 µM) | 0.39 (≈ 0.825 µM)
11 | CC1(C)S[C@@H]2[C@H](NC(=O)C(NC(=O)c3ccnnc3O)C3=CCC=CC3)C(=O)N2[C@H]1C(=O)O (stereo partly shown) [Example 12] | 12.5 (≈ 26.4 µM) | 3.13 (≈ 6.61 µM) | 12.5 (≈ 26.4 µM) | 3.13 (≈ 6.61 µM) | 0.05 (≈ 0.106 µM) | 0.2 (≈ 0.422 µM)
12 | CC(C)CC(NC(=O)c1ccnnc1O)C(=O)N[C@@H]1C(=O)N2[C@@H]1SC(C)(C)[C@@H]2C(=O)O (stereo partly shown) [Example 13] | 12.5 (≈ 27.7 µM) | 12.5 (≈ 27.7 µM) | 25 (≈ 55.4 µM) | 25 (≈ 55.4 µM) | 0.39 (≈ 0.864 µM) | 0.39 (≈ 0.864 µM)
13 | CC1(C)S[C@@H]2[C@H](NC(=O)C(NC(=O)c3ccnnc3O)c3ccsc3)C(=O)N2[C@H]1C(=O)O (stereo partly shown) [Example 15] | 12.5 (≈ 26.2 µM) | 3.13 (≈ 6.55 µM) | 6.25 (≈ 13.1 µM) | 12.5 (≈ 26.2 µM) | 0.05 (≈ 0.105 µM) | 0.39 (≈ 0.817 µM)
14 | CC1(C)S[C@@H]2[C@H](NC(=O)C(NC(=O)c3cnccc3O)c3cnsc3)C(=O)N2[C@H]1C(=O)O (stereo partly shown) [Example 16] | 25 (≈ 52.4 µM) | 6.25 (≈ 13.1 µM) | 12.5 (≈ 26.2 µM) | 25 (≈ 52.4 µM) | 0.2 (≈ 0.419 µM) | 0.78 (≈ 1.63 µM)
15 | CC1(C)S[C@@H]2[C@H](NC(=O)C(NC(=O)c3cncnc3O)c3ccsc3)C(=O)N2[C@H]1C(=O)O (stereo partly shown) [Example 17] | 25 (≈ 52.4 µM) | 3.13 (≈ 6.55 µM) | 6.25 (≈ 13.1 µM) | 50 (≈ 105 µM) | 0.05 (≈ 0.105 µM) | 0.39 (≈ 0.817 µM)
16 | CC1(C)S[C@@H]2[C@H](NC(=O)C(NC(=O)c3ccnnc3O)c3cccs3)C(=O)N2[C@H]1C(=O)O (stereo partly shown) [Example 18] | 12.5 (≈ 26.2 µM) | 3.13 (≈ 6.55 µM) | 6.25 (≈ 13.1 µM) | 12.5 (≈ 26.2 µM) | 0.05 (≈ 0.105 µM) | 0.39 (≈ 0.817 µM)
17 | CC1(C)S[C@@H]2[C@H](NC(=O)C(NC(=O)c3ccnnc3O)c3cnsc3)C(=O)N2[C@H]1C(=O)O (stereo partly shown) [Example 19] | 12.5 (≈ 26.1 µM) | 6.25 (≈ 13.1 µM) | 6.25 (≈ 13.1 µM) | 25 (≈ 52.2 µM) | 0.05 (≈ 0.104 µM) | 0.39 (≈ 0.815 µM)
18 | CC1(C)S[C@@H]2[C@H](NC(=O)C(NC(=O)c3cnc4c(c3O)CCCCC4)c3ccccc3)C(=O)N2[C@H]1C(=O)O (stereo partly shown) [Example 20] | 25 (≈ 46.4 µM) | 12.5 (≈ 23.2 µM) | 6.25 (≈ 11.6 µM) | 3.13 (≈ 5.81 µM) | 0.78 (≈ 1.45 µM) | 0.78 (≈ 1.45 µM)
19 | CCOC(=O)Oc1c(C(=O)NC(C(=O)N[C@@H]2C(=O)N3[C@@H]2SC(C)(C)[C@@H]3C(=O)O)c2ccccc2)cnc2c1CCCCC2 (stereo partly shown) [Example 21] | 25 (≈ 40.9 µM) | 25 (≈ 40.9 µM) | 6.25 (≈ 10.2 µM) | 3.13 (≈ 5.13 µM) | 0.78 (≈ 1.28 µM) | 0.78 (≈ 1.28 µM)
20 | Cc1ncc(C(=O)NC(C(=O)N[C@@H]2C(=O)N3[C@@H]2SC(C)(C)[C@@H]3C(=O)O)c2ccccc2)c(O)c1C(C)O (stereo partly shown) [Example 22] | 25 (≈ 47.3 µM) | 6.25 (≈ 11.8 µM) | 12.5 (≈ 23.6 µM) | 12.5 (≈ 23.6 µM) | 0.39 (≈ 0.738 µM) | 0.78 (≈ 1.48 µM)
21 | Cc1cc(C(=O)NC(C(=O)N[C@@H]2C(=O)N3[C@@H]2SC(C)(C)[C@@H]3C(=O)O)c2ccccc2)c(O)nn1 (stereo partly shown) [Example 24] | 12.5 (≈ 25.7 µM) | 3.13 (≈ 6.45 µM) | 50 (≈ 103 µM) | 25 (≈ 51.5 µM) | 0.39 (≈ 0.803 µM) | 0.39 (≈ 0.803 µM)
22 | CC1(C)S[C@@H]2[C@H](NC(=O)C(NC(=O)c3cnccc3O)c3ccccc3)C(=O)N2[C@H]1C(=O)O (stereo partly shown) [Example 25] |  | 6.23 (≈ 13.2 µM) | 12.5 (≈ 26.6 µM) | 25 (≈ 53.1 µM) | 0.2 (≈ 0.425 µM) | 0.78 (≈ 1.66 µM)
23 | CSc1ncc(C(=O)NC(C(=O)N[C@@H]2C(=O)N3[C@@H]2SC(C)(C)[C@@H]3C(=O)O)c2ccccc2)c(O)n1 (stereo partly shown) [Example 27] | 50 (≈ 96.6 µM) | 6.25 (≈ 12.1 µM) | 12.5 (≈ 24.2 µM) | 50 (≈ 96.6 µM) | 0.1 (≈ 0.193 µM) | 0.78 (≈ 1.51 µM)
24 | CC1(C)S[C@@H]2[C@H](NC(=O)C(NC(=O)c3ccccn3)c3ccccc3)C(=O)N2[C@H]1C(=O)O (stereo partly shown) [I, reference compound] |  |  | 50 (≈ 110 µM) |  |  | 
25 | CC1(C)S[C@@H]2[C@H](NC(=O)C(NC(=O)c3cccnc3)c3ccccc3)C(=O)N2[C@H]1C(=O)O (stereo partly shown) [II, reference compound] | 100 (≈ 220 µM) | 50 (≈ 110 µM) | 100 (≈ 220 µM) | 100 (≈ 220 µM) | 0.78 (≈ 1.72 µM) | 0.78 (≈ 1.72 µM)
